Read-outs that look alike come from different tables or passages of the source.
Tests used:
VHL protein = test system: VHL protein; set-up: method as in PMID 28288108, PMID 30721025; conditions: cited from earlier work
in vitro = conditions: PAMPA
VHL = target: T1, VHL (Homo sapiens, UniProt P40337); test: Fluorescence polarization (FP) competitive binding assay; conditions: 15 nM VCB protein, 10 nM FAM-labeled HIF-1α peptide JC9, read-out: Kd (FP-derived)
T1 construct: each well solution containing 15 nM VCB

[1] = for LPE: LPE = LogD(dec/w) – 1.06(ALogP) + 5.47
MV4;11 [2] = conditions: cited from earlier work; for pEC50 (MV4;11): cell proliferation, 48 h treatment, ref Chan et al. 2018 (ref1)
HL60 [3] = test system: HL60; set-up: method as in Chan et al. 2018 (ref1); conditions: cell proliferation, 48 h treatment; ref Chan et al. 2018 (ref1); cited from earlier work
MV4;11 [4] = test: Cell proliferation assay, MV4;11; type: cell-based; conditions: Homo sapiens, 48 h treatment, read-out: pEC50 (MV4;11) (converted)
Description: (§1) IX. Cell proliferation assay
(§2) Cell proliferation data were collected as described in Chan et al. 2018 pg. 511 titled “Cell

HL60 [5] = test: Cell proliferation assay, HL60; type: cell-based; conditions: for EC50: Homo sapiens, HL-60, 48 h treatment, read-out: pEC50 (HL60) (converted); for pEC50 (HL60): 48 h treatment
Description: as §1, §2

VHL E3 ubiquitin ligase = test system: VHL E3 ubiquitin ligase; set-up: method as in PMID 29018234; conditions: cited from earlier work

With CC(=O)N[C@H](C(=O)N1C[C@H](O)C[C@H]1C(=O)NCc1ccc(-c2scnc2C)cc1)C(C)(C)SCCCCCCNC(=O)C[C@@H]1N=C(c2ccc(Cl)cc2)c2c(sc(C)c2C)-n2c(C)nnc21 [AT1] as the molecule, how does the “fold lower binding affinity for the VHL protein compared to 8” value (VHL protein) read?
The value was 5 fold.

Which Papp (in vitro; pH 7.4, PAMPA permeability (Pe)) does the source give for Cc1sc2c(c1C)C(c1ccc(Cl)cc1)=N[C@@H](CC(=O)OC(C)(C)C)c1nnc(C)n1-2 [Compound 1, reference compound] here?
The Papp was ≥ 5 ×10⁻⁶ cm/s.

For Cc1ncsc1-c1ccc(CNC(=O)[C@@H]2C[C@@H](O)CN2C(=O)[C@@H](OC(=O)Cc2ccccc2)C(C)(C)C)cc1 [Compound 3], which Kd (VHL) is on record?
Its Kd is 800 nM.

For Cc1ncsc1-c1ccc(CNC(=O)[C@@H]2C[C@@H](O)CN2C(=O)[C@@H](NC(=O)Cc2ccccc2)C(C)(C)C)cc1 [Compound 4], which LPE [1] is on record?
Its LPE is 2.0.

And the Papp (in vitro; pH 7.4)?
The Papp was ≥ 5 ×10⁻⁶ cm/s.

And the Papp at 7 h (in vitro; pH 7.4)?
The Papp at 7 h was 8.6 ×10⁻⁶ cm/s.

Which “ΔLPE (lower than 3)” value ([1]; comparator compound 3) does the source give for Cc1ncsc1-c1ccc(CNC(=O)[C@@H]2C[C@@H](O)CN2C(=O)[C@@H](OC(=O)CCOCCOCCOCCNC(=O)Cc2ccccc2)C(C)(C)C)cc1 [Compound 5] here?
The value was 0.8.

What about the Papp at 7 h (in vitro; pH 7.4) of the same molecule?
Its Papp at 7 h is 0.3 ± 0.1 ×10⁻⁶ cm/s.

And the “fold more permeable than 6 (PAMPA)” value (pH 7.4)?
Its value is 1.5 fold.

For Cc1ncsc1-c1ccc(CNC(=O)[C@@H]2C[C@@H](O)CN2C(=O)[C@@H](NC(=O)CCOCCOCCOCCNC(=O)Cc2ccccc2)C(C)(C)C)cc1 [Compound 6], which “ΔLPE (lower than 4)” value ([1]; comparator compound 4) is on record?
The value was 0.4.

What about the Papp at 7 h (in vitro; pH 7.4) of the same molecule?
The Papp at 7 h was 0.2 ± 0.03 ×10⁻⁶ cm/s.

Which results are given for Cc1ncsc1-c1ccc(CNC(=O)[C@@H]2C[C@@H](O)CN2C(=O)[C@@H](NC(=O)COCCOCCNC(=O)C[C@@H]2N=C(c3ccc(Cl)cc3)c3c(sc(C)c3C)-n3c(C)nnc32)C(C)(C)C)cc1 [Compound 7]?
pEC50 (MV4;11) (MV4;11 [2]): 6.75; LPE [1]: 0.4; pEC50 (HL60) (HL60 [3]): 5.84; Papp (in vitro; pH 7.4): > 0.6 ×10⁻⁶ cm/s; Papp at 15 h (in vitro; pH 7.4): 0.6 ×10⁻⁶ cm/s; fold more permeable than 8 (PAMPA) (pH 7.4): 20 fold; fold more permeable than 9 (PAMPA) (pH 7.4): 100 fold; fold more permeable than 15 (PAMPA) (pH 7.4): 120 fold; fold more permeable than 17 and 14 (PAMPA) (pH 7.4): 300 fold

For Cc1ncsc1-c1ccc(CNC(=O)[C@@H]2C[C@@H](O)CN2C(=O)[C@@H](NC(=O)COCCOCCOCCNC(=O)C[C@@H]2N=C(c3ccc(Cl)cc3)c3c(sc(C)c3C)-n3c(C)nnc32)C(C)(C)C)cc1 [Compound 8], which “activity relative to 7 (cellular antiproliferation)” value (MV4;11 [2]; SI Table 2, MV4;11 and HL60) is on record?
The value was “one log unit”.

And the “pEC50 (MV4;11)” value (MV4;11 [2])?
Its value is 7.57.

And the “pEC50 (HL60)” value (HL60 [3])?
The value was 6.8.

What about the Papp (in vitro; pH 7.4) of the same molecule?
The Papp was > 0.6 ×10⁻⁶ cm/s.

What about the Papp at 15 h (in vitro; pH 7.4) of the same molecule?
Its Papp at 15 h is 0.03 ± 0.01 ×10⁻⁶ cm/s.

And the “fold difference in permeability vs 16 (PAMPA)” value (pH 7.4)?
The value was 10 fold.

And the “fold less permeable than 7 (PAMPA)” value (pH 7.4)?
The value was 20 fold.

Which results are given for Cc1ncsc1-c1ccc(CNC(=O)[C@@H]2C[C@@H](O)CN2C(=O)[C@@H](NC(=O)[C@H](Cc2ccccc2)NC(=O)COCCOCCOCCNC(=O)C[C@@H]2N=C(c3ccc(Cl)cc3)c3c(sc(C)c3C)-n3c(C)nnc32)C(C)(C)C)cc1 [Compound 9]?
LPE [1]: -1.1; decrease in LPE vs 8 ([1]; addition of a Phe residue to 8): 1.2 unit; EC50 (MV4;11 [4]): 457 nM; Papp at 15 h (in vitro; pH 7.4): 0.006 ×10⁻⁶ cm/s; fold decrease in permeability vs 8 (PAMPA) (pH 7.4): 5 fold; EC50 (HL60 [5]): 4170 nM

With CC(=O)N1c2ccc(-c3ccc(C(=O)NCCOCCOCC(=O)N[C@H](C(=O)N4C[C@H](O)C[C@H]4C(=O)NCc4ccc(-c5scnc5C)cc4)C(C)(C)C)cc3)cc2[C@H](Nc2ccc(Cl)cc2)C[C@@H]1C [Compound 10] as the molecule, how does the “pEC50 (MV4;11)” value (MV4;11 [2]) read?
Its value is 6.24.

What about the LPE [1] of the same molecule?
Its LPE is -0.1.

What about the “pEC50 (HL60)” value (HL60 [3]) of the same molecule?
Its value is 6.17.

And the Papp at 15 h (in vitro; pH 7.4)?
The Papp at 15 h was 0.3 ± 0.1 ×10⁻⁶ cm/s.

And the “fold difference in permeability vs 11 (PAMPA)” value (pH 7.4)?
Its value is 2 fold.

What does the source list for CC(=O)N1c2ccc(-c3ccc(C(=O)NCCOCCOCCOCCOCC(=O)N[C@H](C(=O)N4C[C@H](O)C[C@H]4C(=O)NCc4ccc(-c5scnc5C)cc4)C(C)(C)C)cc3)cc2[C@H](Nc2ccc(Cl)cc2)C[C@@H]1C [Compound 11]?
pEC50 (MV4;11) (MV4;11 [2]): 7.08; LPE [1]: 0.2; pEC50 (HL60) (HL60 [3]): 6.37; Papp at 15 h (in vitro; pH 7.4): 0.16 ± 0.14 ×10⁻⁶ cm/s

What does the source list for Cc1ncsc1-c1ccc(CNC(=O)[C@@H]2C[C@@H](O)CN2C(=O)[C@@H](NC(=O)COCCOCCOCCOCC(=O)N[C@H](C(=O)N2C[C@H](O)C[C@H]2C(=O)NCc2ccc(-c3scnc3C)cc2)C(C)(C)C)C(C)(C)C)cc1 [Compound 12]?
LPE ([1]; listed as CM9 (12)): 0.8; Papp (in vitro; pH 7.4): 0.009 ×10⁻⁶ cm/s

Which results are given for Cc1ncsc1-c1ccc(CNC(=O)[C@@H]2C[C@@H](O)CN2C(=O)[C@@H](NC(=O)COCCOCCOCCOCCOCCOCC(=O)N[C@H](C(=O)N2C[C@H](O)C[C@H]2C(=O)NCc2ccc(-c3scnc3C)cc2)C(C)(C)C)C(C)(C)C)cc1 [Compound 13]?
LPE ([1]; listed as CM11 (13)): 0.6; Papp (in vitro; pH 7.4): 0.005 ×10⁻⁶ cm/s; permeability relative to 12 (PAMPA): reduced by half; activity relative to 12 (cellular protein degradation assay) (VHL E3 ubiquitin ligase): two log units

Which LPE ([1]; listed as CMP98 (14)) does the source give for Cc1ncsc1-c1ccc(CNC(=O)[C@@H]2C[C@H](O)CN2C(=O)[C@@H](NC(=O)COCCOCCOCCOCCOCCOCC(=O)N[C@H](C(=O)N2C[C@@H](O)C[C@H]2C(=O)NCc2ccc(-c3scnc3C)cc2)C(C)(C)C)C(C)(C)C)cc1 [Compound 14] here?
The LPE was 1.7.

And the Papp at 15 h (in vitro; pH 7.4)?
The Papp at 15 h was 0.002 ± 0.0002 ×10⁻⁶ cm/s.

With CC(=O)N[C@H](C(=O)N1C[C@H](O)C[C@H]1C(=O)NCc1ccc(-c2scnc2C)cc1)C(C)(C)SCCOCCNC(=O)C[C@@H]1N=C(c2ccc(Cl)cc2)c2c(sc(C)c2C)-n2c(C)nnc21 [Compound 15] as the molecule, how does the LPE [1] read?
The LPE was −2.3.

What about the EC50 (MV4;11 [4]) of the same molecule?
The EC50 was 7240 nM.

What about the Papp at 15 h (in vitro; pH 7.4) of the same molecule?
Its Papp at 15 h is 0.005 ± 0.003 ×10⁻⁶ cm/s.

What about the EC50 (HL60 [5]) of the same molecule?
Its EC50 is 12600 nM.

Which LPE [1] does the source give for CC(=O)N[C@H](C(=O)N1C[C@H](O)C[C@H]1C(=O)NCc1ccc(-c2scnc2C)cc1)C(C)(C)SCCOCCOCCNC(=O)C[C@@H]1N=C(c2ccc(Cl)cc2)c2c(sc(C)c2C)-n2c(C)nnc21 [Compound 16] here?
The LPE was −2.6.

What about the EC50 (MV4;11 [4]) of the same molecule?
The EC50 was 692 nM.

And the Papp at 15 h (in vitro; pH 7.4)?
The Papp at 15 h was 0.003 ×10⁻⁶ cm/s.

And the “permeability relative to 15 (PAMPA)” value?
The value was “reduced by half”.

And the “PAMPA permeability (Pe)” value (pH 7.4)?
The value was 0.003 ± 8.4x10-5.

And the “pEC50 (HL60)” value (HL60 [5])?
Its value is “BLQ”.

With CC(=O)N[C@H](C(=O)N1C[C@H](O)C[C@H]1C(=O)NCc1ccc(-c2scnc2C)cc1)C(C)(C)SCCCCNC(=O)C[C@@H]1N=C(c2ccc(Cl)cc2)c2c(sc(C)c2C)-n2c(C)nnc21 [Compound 17] as the molecule, how does the LPE [1] read?
Its LPE is -3.1.

And the “LPE lower than 15 (ΔLPE)” value ([1]; alkyl-linked 17 vs PEG counterpart 15)?
The value was 0.8.

What about the EC50 (MV4;11 [4]) of the same molecule?
Its EC50 is 617 nM.

What about the Papp at 15 h (in vitro; pH 7.4) of the same molecule?
Its Papp at 15 h is 0.002 ×10⁻⁶ cm/s.

What about the “fold less permeable than 15 (PAMPA)” value (pH 7.4) of the same molecule?
Its value is 2.5 fold.

What about the “pEC50 (HL60)” value (HL60 [5]) of the same molecule?
The value was “BLQ”.
